For the experiment, the system named is test plant species. Description: Post-emergent herbicidal activity test (greenhouse, foliar spray, visual growth reduction). In kind it is in vivo. Conditions: post-emergence, 336 h, 140 g ai/ha, 14 days after application. The procedure, abridged: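 Scoring used a 0 to 100 percent visual scale of growth reduction against solvent-treated controls, read 14 d after spraying. Applications went onto plants at first or second true leaf stage, 187 L/ha, with crop oil concentrate and X-77 surfactant in the carrier. Post-treatment watering was by subirrigation to avoid wash-off.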

Where [1] appears, read: ALOMY: blackgrass (Alopecurus myosuroides), read-out: Visual Growth Reduction (%) 14 Days After Application, ALOMY.
[2] abbreviates: AMARE: redroot pigweed (Amaranthus retroflexus), read-out: Visual Growth Reduction (%) 14 Days After Application, AMARE.
Setting [3] is: AVEFA: wild oat (Avena fatua), read-out: Visual Growth Reduction (%) 14 Days After Application, AVEFA.
Where [4] appears, read: CHEAL: lambsquarters (Chenopodium album), read-out: Visual Growth Reduction (%) 14 Days After Application, CHEAL.
Setting [5] is: CIRAR: canada thistle (Cirsium arvense), read-out: Visual Growth Reduction (%) 14 Days After Application, CIRAR.
[6] abbreviates: CYPES: yellow nutsedge (Cyperus esculentus), read-out: Visual Growth Reduction (%) 14 Days After Application, CYPES.
Setting [7] is: DIGSA: crabgrass (Digitaria sanguinalis), read-out: Visual Growth Reduction (%) 14 Days After Application, DIGSA.
Where [8] appears, read: ECHCG: barnyardgrass (Echinochloa crus-galli), read-out: Visual Growth Reduction (%) 14 Days After Application, ECHCG.
Setting [9] is: IPOHE: ivy-leaf morning glory (Ipomoea hederacea), read-out: Visual Growth Reduction (%) 14 Days After Application, IPOHE.
Where [10] appears, read: KCHSC: kochia (Bassia scoparia), read-out: Visual Growth Reduction (%) 14 Days After Application, KCHSC.
Where [11] appears, read: ORYSA: rice (Oryza sativa), read-out: Visual Growth Reduction (%) 14 Days After Application, ORYSA.
Where [12] appears, read: SETFA: giant foxtail (Setaria faberi), read-out: Visual Growth Reduction (%) 14 Days After Application, SETFA.
Setting [13] is: SORVU: grain sorghum (Sorghum vulgare), read-out: Visual Growth Reduction (%) 14 Days After Application, SORVU.
Setting [14] is: STEME: common chickweed (Stellaria media), read-out: Visual Growth Reduction (%) 14 Days After Application, STEME.
Setting [15] is: TRZAS: wheat, spring (Triticum aestivum), read-out: Visual Growth Reduction (%) 14 Days After Application, TRZAS.

Molecules are shown by their SMILES. Read-outs that look alike come from different tables or passages of the source.

Take `COC(=O)c1nc(-c2ccc(C(F)(F)F)nc2)c(Cl)cc1Cl` [F99, methyl 3,5-dichloro-6′-(trifluoromethyl)-[2,3′-bipyridine]-6-carboxylate]: the pest or weed control at 140 g/ha under setting [1] fell in the range of 0 to 29%; the pest or weed control at 140 g/ha under setting [2] was 0 to 29%; the pest or weed control at 140 g/ha under setting [3] is 0 to 29%; the pest or weed control at 140 g/ha under setting [4] is 0 to 29%; the pest or weed control at 140 g/ha under setting [5] lay in the range of 0 to 29%; the pest or weed control at 140 g/ha under setting [6] lay in the range of 0 to 29%. The pest or weed control at 140 g/ha by setting is: under setting [7], 0 to 29%; under setting [8], 0 to 29%; under setting [9], 0 to 29%; under setting [10], 0 to 29%; under setting [11], 0 to 29%; under setting [12], 0 to 29%. Also, the pest or weed control at 140 g/ha was 0 to 29% under setting [13], 0 to 29% under setting [14] and 0 to 29% under setting [15].
As to `COC(=O)c1nc(-c2ccc(I)cc2)c(F)cc1Cl` [F100, Methyl 3-chloro-5-fluoro-6-(4-iodophenyl) picolinate], the pest or weed control at 140 g/ha is, setting by setting: under setting [1], 0 to 29%; under setting [2], 0 to 29%; under setting [3], 0 to 29%; under setting [4], 0 to 29%; under setting [5], 45 to 59%; under setting [6], 30 to 44%. Also, the pest or weed control at 140 g/ha runs as follows: under setting [7], 0 to 29%; under setting [8], 0 to 29%; under setting [9], 30 to 44%; under setting [10], 0 to 29%; under setting [11], 0 to 29%; under setting [12], 0 to 29%. The pest or weed control at 140 g/ha runs as follows: under setting [13], 30 to 44%; under setting [14], 0 to 29%; under setting [15], 0 to 29%.
On to `COC(=O)c1nc(-c2ncc(C(F)(F)F)cc2Cl)ccc1Cl` [F101, methyl 3′,5-dichloro-5′-(trifluoromethyl)-[2,2′-bipyridine]-6-carboxylate], for which the pest or weed control at 140 g/ha was 0 to 29% under setting [1]; 95 to 100% under setting [2]; 0 to 29% under setting [3]; 95 to 100% under setting [4]; 85 to 94% under setting [5]; 75 to 84% under setting [6]. The pest or weed control at 140 g/ha under setting [7] lay in the range of 95 to 100%; the pest or weed control at 140 g/ha under setting [8] lay in the range of 85 to 94%; the pest or weed control at 140 g/ha under setting [9] lay within 95 to 100%; the pest or weed control at 140 g/ha under setting [10] fell in the range of 95 to 100%; the pest or weed control at 140 g/ha under setting [11] lay within 0 to 29%; the pest or weed control at 140 g/ha under setting [12] lay in the range of 75 to 84%. Further, the pest or weed control at 140 g/ha is, setting by setting: under setting [13], 95 to 100%; under setting [14], 0 to 29%; under setting [15], 60 to 74%.
Consider `COC(=O)c1nc(-c2ccc(C(F)(F)F)cc2F)c(Cl)cc1Cl` [F102, Methyl 3,5-dichloro-6-(2-fluoro-4-(trifluoromethyl)phenyl)picolinate], for which the pest or weed control at 140 g/ha lay in the range of 0 to 29% under setting [1]; 45 to 59% under setting [2]; 0 to 29% under setting [3]; 60 to 74% under setting [4]; 0 to 29% under setting [5]; 0 to 29% under setting [6]. The pest or weed control at 140 g/ha under setting [7] is 0 to 29%; the pest or weed control at 140 g/ha under setting [8] lay in the range of 0 to 29%; the pest or weed control at 140 g/ha under setting [9] lay in the range of 60 to 74%; the pest or weed control at 140 g/ha under setting [10] is 0 to 29%; the pest or weed control at 140 g/ha under setting [11] fell in the range of 0 to 29%; the pest or weed control at 140 g/ha under setting [12] was 0 to 29%. In addition, the pest or weed control at 140 g/ha runs as follows: under setting [13], 60 to 74%; under setting [14], 0 to 29%; under setting [15], 0 to 29%.
